Holding throughout (assay): relative viability (nuclei count vs DMSO), 5 days (fraction); higher = more cells survive
Compound in test [1]: COc1cc(-c2nn([C@H]3CC[C@H](N4CCN(C(C)=O)CC4)CC3)c3ncnc(N)c23)ccc1NC(=O)c1cc2ccccc2n1C + CS(=O)(=O)N1CCN(Cc2cc3nc(-c4cccc5[nH]ncc45)nc(N4CCOCC4)c3s2)CC1 [Pictilisib] (partner 1 µM)
The procedure, abridged: (§1)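 The day after seeding in 1536-well plates, lung cancer cell lines were treated by pin tool with a single drug, or with a fixed anchor-drug dose together with five library-drug doses (not always all listed) in √10 steps. After 5 days, a combined fix-and-stain solution (final 0.05% Triton X-100, 1% formaldehyde, 1 ug/ml Hoechst) was added. Nuclei counted on 4× images gave relative viability as treated counts over vehicle counts, reported as the median of duplicate plates.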

Compound in test [2]: COc1cc(-c2nn([C@H]3CC[C@H](N4CCN(C(C)=O)CC4)CC3)c3ncnc(N)c23)ccc1NC(=O)c1cc2ccccc2n1C + Nc1nc2[nH]cc(CCc3ccc(C(=O)N[C@@H](CCC(=O)O)C(=O)O)cc3)c2c(=O)[nH]1 [Pemetrexed] (partner 0.2 µM)
The procedure, abridged: as §1

Compound in test [3]: CO[C@@H]1[C@H](N(C)C(=O)c2ccccc2)C[C@H]2O[C@]1(C)n1c3ccccc3c3c4c(c5c6ccccc6n2c5c31)C(=O)NC4 [Midostaurin] + CS(=O)(=O)CCNCc1ccc(-c2ccc3ncnc(Nc4ccc(OCc5cccc(F)c5)c(Cl)c4)c3c2)o1 [Lapatinib] (partner 2 µM)
The procedure, abridged: as §1

Compound in test [4]: COc1cc(-c2nn([C@H]3CC[C@H](N4CCN(C(C)=O)CC4)CC3)c3ncnc(N)c23)ccc1NC(=O)c1cc2ccccc2n1C + CC1(C)CCC(c2ccc(Cl)cc2)=C(CN2CCN(c3ccc(C(=O)NS(=O)(=O)c4ccc(N[C@H](CCN5CCOCC5)CSc5ccccc5)c(S(=O)(=O)C(F)(F)F)c4)cc3)CC2)C1 [Navitoclax] (partner 0.5 µM)
The procedure, abridged: as §1

Compound in test [5]: CO[C@@H]1[C@H](N(C)C(=O)c2ccccc2)C[C@H]2O[C@]1(C)n1c3ccccc3c3c4c(c5c6ccccc6n2c5c31)C(=O)NC4 [Midostaurin] + Nc1nc2[nH]cc(CCc3ccc(C(=O)N[C@@H](CCC(=O)O)C(=O)O)cc3)c2c(=O)[nH]1 [Pemetrexed] (partner 0.2 µM)
The procedure, abridged: as §1

For the cell line UMC-11, the relative viability in test [1] (first compound 0.0128 µM) came to 0.89; in test [1] (first compound 0.04048 µM), 0.788; in test [1] (first compound 0.128 µM), 0.767; in test [1] (first compound 1.28 µM) it was 0.71; in test [2] (first compound 0.0128 µM) it was 0.694; in test [2] (first compound 0.04048 µM), 0.865. Moreover, the relative viability in test [2] (first compound 0.128 µM) came out at 0.809; in test [2] (first compound 1.28 µM), 0.576; in test [3] (first compound 0.01 µM), 0.936; in test [3] (first compound 0.03162 µM), 0.836; in test [3] (first compound 0.1 µM) it was 0.937; in test [3] (first compound 0.3162 µM), 0.513. Also, the relative viability in test [4] (first compound 0.0128 µM) was 0.315; in test [4] (first compound 0.04048 µM) it was 0.323; in test [4] (first compound 0.128 µM), 0.28; in test [4] (first compound 1.28 µM) it was 0.297; in test [5] (first compound 0.01 µM) it was 0.808; in test [5] (first compound 0.03162 µM), 0.753. Further, the relative viability in test [5] (first compound 0.1 µM) was determined as 0.65; in test [5] (first compound 0.3162 µM), 0.528.

(Values after the supplement of paper PMC10307832.)
